Reference: PubChem BioAssay AID2060627 (Molecular Pharmacology Branch, DTP, NCI, 2025)

Tested on: 156681-154-R-J1-PDC complex spheroid viability
Assay: Anticancer human tumor 156681-154-R-J1-PDC patient-derived melanoma cell line growth inhibition [CLK]
Conditions: for IC50: curve of first compound; for viability, T/C: stronger effect = lower value; active = viability on the fitted dose curve at most 10% of control; inactive = the rest
Method in brief: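 Multi-cell-type spheroids combined patient-derived tumor cells with HUVEC endothelial cells and human mesenchymal stem cells. Paired agents were dosed in half-log steps down from about clinical Cmax, or from 10 microM where Cmax was unknown.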

[1] = second compound 0.0316 µM, first compound 0.0316 µM
[2] = second compound 0.0316 µM, first compound 0.1 µM
[3] = second compound 0.0316 µM, first compound 0.316 µM
[4] = second compound 0.0316 µM, first compound 1 µM
[5] = second compound 0.0316 µM, first compound 3.16 µM
[6] = second compound 0.0316 µM, first compound 10 µM
[7] = second compound 0.1 µM, first compound 0.0316 µM
[8] = second compound 0.1 µM, first compound 0.1 µM
[9] = second compound 0.1 µM, first compound 0.316 µM
[10] = second compound 0.1 µM, first compound 1 µM
[11] = second compound 0.1 µM, first compound 3.16 µM
[12] = second compound 0.1 µM, first compound 10 µM
[13] = second compound 0.316 µM, first compound 0.0316 µM
[14] = second compound 0.316 µM, first compound 0.1 µM
[15] = second compound 0.316 µM, first compound 0.316 µM
[16] = second compound 0.316 µM, first compound 1 µM
[17] = second compound 0.316 µM, first compound 3.16 µM
[18] = second compound 0.316 µM, first compound 10 µM
[19] = second compound 1 µM, first compound 0.0316 µM
[20] = second compound 1 µM, first compound 0.1 µM
[21] = second compound 1 µM, first compound 0.316 µM
[22] = second compound 1 µM, first compound 1 µM
[23] = second compound 1 µM, first compound 3.16 µM
[24] = second compound 1 µM, first compound 10 µM
[25] = second compound 3.16 µM, first compound 0.0316 µM
[26] = second compound 3.16 µM, first compound 0.1 µM
[27] = second compound 3.16 µM, first compound 0.316 µM
[28] = second compound 3.16 µM, first compound 1 µM
[29] = second compound 3.16 µM, first compound 3.16 µM
[30] = second compound 3.16 µM, first compound 10 µM
[31] = second compound 10 µM, first compound 0.0316 µM
[32] = second compound 10 µM, first compound 0.1 µM
[33] = second compound 10 µM, first compound 0.316 µM
[34] = second compound 10 µM, first compound 1 µM
[35] = second compound 10 µM, first compound 3.16 µM
[36] = second compound 10 µM, first compound 10 µM
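Note: spheroids exposed to the agents for seven days.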
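Throughout, for viability, T/C: 100% = DMSO vehicle control viability.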

C=C(F)C(=O)N1CCN(c2nc(OCC3CCCN3C)nc3c2CCN(c2cccc4cccc(Cl)c24)C3)CC1CC#N (stereo unspecified) + CNC(=O)c1ccc(Nc2nc(OC3CCCC3)c3c(-c4ccc5nc(C)oc5c4)c[nH]c3n2)c(OC)c1
1260 nM: IC50 (second compound 0.316 µM)
inactive: viability, T/C [1] 70.9% | viability, T/C [2] 92.6% | viability, T/C [3] 76.5% | viability, T/C [4] 87.4% | viability, T/C [5] 15.2% | viability, T/C [7] 45.3% | viability, T/C [8] 56.5% | viability, T/C [9] 54.9% | viability, T/C [10] 59% | viability, T/C [11] 11.4% | viability, T/C [13] 46.7% | viability, T/C [14] 49.5% | viability, T/C [15] 77.3% | viability, T/C [16] 66.5% | viability, T/C [17] 10% | viability, T/C [19] 59.3% | viability, T/C [20] 53.3% | viability, T/C [21] 43.9% | viability, T/C [22] 50.9% | viability, T/C [25] 48.2% | viability, T/C [26] 33.5% | viability, T/C [27] 37.1% | viability, T/C [28] 42.6% | viability, T/C [29] 2.84% | viability, T/C [31] 39.2% | viability, T/C [32] 37% | viability, T/C [33] 28.7% | viability, T/C [34] 40.4% | viability, T/C [35] 1.02%
1730 nM: IC50 (second compound 0.0316 µM)
< 31.6 nM: IC50 (second compound 3.16 µM) | IC50 (second compound 10 µM)
active: viability, T/C [6] 0.17% | viability, T/C [12] 2.23% | viability, T/C [18] 0.09% | viability, T/C [23] 3.8% | viability, T/C [24] 0.09% | viability, T/C [30] 0.11% | viability, T/C [36] 4.8%
1020 nM: IC50 (second compound 1 µM)
1110 nM: IC50 (second compound 0.1 µM)

C=CC(=O)N1CCN(c2nc(=O)n(-c3c(C)ccnc3C(C)C)c3nc(-c4c(O)cccc4F)c(F)cc23)C(C)C1 (stereo unspecified) + CNC(=O)c1ccc(Nc2nc(OC3CCCC3)c3c(-c4ccc5nc(C)oc5c4)c[nH]c3n2)c(OC)c1
> 10000 nM: IC50 (second compound 0.0316 µM) | IC50 (second compound 0.1 µM)
< 31.6 nM: IC50 (second compound 1 µM) | IC50 (second compound 3.16 µM) | IC50 (second compound 10 µM)
inactive: viability, T/C [1] 83.4% | viability, T/C [2] 105% | viability, T/C [3] 91.4% | viability, T/C [4] 106% | viability, T/C [5] 129% | viability, T/C [6] 82.7% | viability, T/C [7] 47.1% | viability, T/C [8] 67.9% | viability, T/C [9] 71.1% | viability, T/C [10] 58.5% | viability, T/C [11] 70.6% | viability, T/C [12] 36% | viability, T/C [13] 61.1% | viability, T/C [14] 71.6% | viability, T/C [15] 72.3% | viability, T/C [16] 71.2% | viability, T/C [17] 65.6% | viability, T/C [18] 27.2% | viability, T/C [19] 51.9% | viability, T/C [20] 51% | viability, T/C [21] 36.9% | viability, T/C [22] 52.3% | viability, T/C [23] 49% | viability, T/C [24] 14.8% | viability, T/C [25] 35% | viability, T/C [26] 40.4% | viability, T/C [27] 33.4% | viability, T/C [28] 44.2% | viability, T/C [29] 40.1% | viability, T/C [30] 23.4% | viability, T/C [31] 41.6% | viability, T/C [32] 30.6% | viability, T/C [33] 37.4% | viability, T/C [34] 36.3% | viability, T/C [35] 30.9% | viability, T/C [36] 12.4%
5090 nM: IC50 (second compound 0.316 µM)

COC1C=CCC(C)C(C)S(=O)(=O)NC(=O)c2ccc3c(c2)N(CC2CCC21)CC1(CCCc2cc(Cl)ccc21)CO3 (stereo unspecified) + CNC(=O)c1ccc(Nc2nc(OC3CCCC3)c3c(-c4ccc5nc(C)oc5c4)c[nH]c3n2)c(OC)c1
327 nM: IC50 (second compound 0.1 µM)
< 31.6 nM: IC50 (second compound 1 µM) | IC50 (second compound 3.16 µM) | IC50 (second compound 10 µM)
active: viability, T/C [6] 1.52% | viability, T/C [12] 1.5% | viability, T/C [17] 5.31% | viability, T/C [18] 2.16% | viability, T/C [23] 8.99% | viability, T/C [24] 2.33% | viability, T/C [29] 7.52% | viability, T/C [30] 3.33% | viability, T/C [35] 10.4% | viability, T/C [36] 5.15%
1070 nM: IC50 (second compound 0.0316 µM)
inactive: viability, T/C [1] 96.3% | viability, T/C [2] 93.1% | viability, T/C [3] 84.3% | viability, T/C [4] 54% | viability, T/C [5] 9.3% | viability, T/C [7] 60.2% | viability, T/C [8] 57% | viability, T/C [9] 48.8% | viability, T/C [10] 36.5% | viability, T/C [11] 12.5% | viability, T/C [13] 55.6% | viability, T/C [14] 49.5% | viability, T/C [15] 35.6% | viability, T/C [16] 20.6% | viability, T/C [19] 43.4% | viability, T/C [20] 42.6% | viability, T/C [21] 24.4% | viability, T/C [22] 19.5% | viability, T/C [25] 35.7% | viability, T/C [26] 39% | viability, T/C [27] 15.3% | viability, T/C [28] 15.1% | viability, T/C [31] 30.4% | viability, T/C [32] 32.5% | viability, T/C [33] 16.2% | viability, T/C [34] 13.8%
88.5 nM: IC50 (second compound 0.316 µM)
